Reference: patent US4680382A, “Analogues of actinomycin D” (priority 1986, dated 1987)

Experiments:
[1] = biological target: T1, NADPH cytochrome P-450 reductase (rat liver microsomes) (Rattus norvegicus, UniProt P00388); assay: Stimulation of NADPH oxidation in rat hepatic microsomal incubations; conditions: for NADPH oxid: 340 nm, 37° C., phenobarbital induced microsomes, mean ± standard error of triplicate, basal 9.11 ± 0.30; for percentage stimulation of NADPH oxidation over basal rate: (drug-stimulated rate - basal rate)/basal rate × 100
T1 sequence (P00388 1-678): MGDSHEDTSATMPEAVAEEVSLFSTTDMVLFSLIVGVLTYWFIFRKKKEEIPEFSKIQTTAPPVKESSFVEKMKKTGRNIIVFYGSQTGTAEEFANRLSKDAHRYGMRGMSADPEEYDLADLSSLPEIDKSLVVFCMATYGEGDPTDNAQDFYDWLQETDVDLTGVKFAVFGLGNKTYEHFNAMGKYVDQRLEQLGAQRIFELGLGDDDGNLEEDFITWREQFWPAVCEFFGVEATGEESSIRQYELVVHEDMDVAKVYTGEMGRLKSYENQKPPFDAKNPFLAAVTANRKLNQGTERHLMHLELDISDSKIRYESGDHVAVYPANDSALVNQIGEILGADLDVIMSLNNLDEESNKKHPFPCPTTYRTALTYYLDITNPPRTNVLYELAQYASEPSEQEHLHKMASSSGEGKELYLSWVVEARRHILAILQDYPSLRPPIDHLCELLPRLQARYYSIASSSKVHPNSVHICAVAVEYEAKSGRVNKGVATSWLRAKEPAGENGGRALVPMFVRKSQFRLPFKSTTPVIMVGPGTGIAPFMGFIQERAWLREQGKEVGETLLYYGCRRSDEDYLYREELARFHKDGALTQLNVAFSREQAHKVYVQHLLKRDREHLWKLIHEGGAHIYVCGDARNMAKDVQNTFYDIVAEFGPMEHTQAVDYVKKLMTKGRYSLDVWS

liver microsomes = assay: EPR detection of free-radical intermediates with liver microsomes and NADPH (anaerobic); assay type: biochemical; conditions: NADPH, potassium phosphate buffer
Description: No free-radical intermediates were detected in the absence of enzyme or substrates.
Melting points are determined on a Thomas-Hoover melting point apparatus at a heating rate of 2° C./min. Thin-layer chromatography was performed on silica gel plates (Brinkmann Instrument Inc.). Solvent systems were (A) EtOAc-acetone (4:1), (B) CHCl3 -MeOH (9:1) and (C) Cifferri, the organic phase of the mixture EtOAc-MeOH-H2 O (20:1:20). High-performance liquid chromatography was carried out on a Varian Model 5020 gradient liquid chromatograph equipped with a CD-111L chromatography data system and fitted with a Varian reversed-phase C18 column with the following solvent systems: I, CH3 CN-5 mM NH4 OAc buffer, pH 6.4 (68:32 isocratic), flow rate 1.5 mL/min; II, 65-95% water-methanol gradient for 70 min, 1 mL/min; III, 10-90% H2 O-MeOH gradient for 120 min, 1 mL/min, with UV-visible variable- and fixed-wavelength dual detectors at 254, 440, 470 and 520 nm. IR spectra were obtained on a Perkin-Elmer Model 237 Infra Cord with KBr micropellets or in chloroform solutions. UV-visible spectra were obtained on a Gilford 250 spectrophorometer, which, with the addition of a base-line reference compensator (Analog Multiplexer 5053) and thermoprogrammer, auto four cell programmer and thermoelectric cell holder 2577, were used to obtain thermal denaturation curves. Specific rotation values were determined in chloroform solutions with a Cary 60 spectropolarimeter. NMR spectra were obtained in a JEOL FQ-90 MHz spectrometer equipped with Fourier transform. EPR spectra analyses were recorded in a Varian E-9 EPR spectrometer. All elemental analyses were within ±0.4%.

rat hepatic microsomes = assay: Stimulation of adrenochrome formation (superoxide generation) in rat hepatic microsomal incubations; conditions: for adrenochrome formation: 480 nm, 37° C., no more than 100 μM drug, basal 2.11 ± 0.11; for adrenochrome formation / percentage stimulation of adrenochrome formation over basal rate: no SOD
P388 cells [2] = assay: Inhibition of RNA synthesis (2-[14C]uridine incorporation) in P388 cells; assay type: cell-based, murine
Description: (§1) Experiments for inhibition of nucleic acid synthesis in tumor cells in vitro were carried out with P388 tumor cells, details of which were reported by Sengupta et al, J. Med. Chem., 18, 1175 (1975). […] AMD-OZLs inhibit either process with equal activity and with the potency of its metabolite 7-hydroxy-AMD.
^b IC50 (RNA) = concentration of inhibitor in μM required to
cause 50% reduction (in 1 hr) in 2[^14 C]uridine incorporation into
acid precipitable material with use of P388 cells.

[3] = tested on: CCRF-CEM human lymphoblastic leukemic cells; assay: In vitro cytotoxicity against CCRF-CEM cells; assay type: cell-based; conditions: 48 hr
Description: ^a Human lymphoblastic leukemic cells.
The analogues were tested for their cytotoxicity against tumor cells (time, 48 hr). […] This may be associated with the initial microsomal transformation of the "reverse" analogues to "symmetrical" analogue and/or other alternate bioactive forms (e.g., free-radicals, O2^-), followed by deactivation via formation of conjugates and facile elimination of these from the host. The "reverse" analogues show reduced toxicity in vivo and also the tritiated "reverse" 7a is metabolized in vitro.

[4] = Maximum tolerated dose (LD10) in tumor-free BDF1 male mice; assay type: in vivo
Description: (§2) These analogues were also tested in tumor-free BDF1 male mice for determination of their MTD values (Table VIII). The animals (18-22 g) were given a broad range of doses of drugs in 5% dimethyl sulfoxide-saline on days 1, 5 and 9. Drugs were administered ip and the maximum tolerated doses of agents which caused death in only 10% of the tested animals in 21 days (i.e., LD10) were recorded as MTD. […] However, the MED values of 7-hydroxy-AMD and its precursor AMD-OZL 10a are high and are seven to tenfold of the MED values of 4a and 8a. On the basis of these MED values, the therapeutic indices of 8a and 4a are 70 and 96. The therapeutic index of 2a is 13, of 10a 10, and of AMD only 4.
^c MTD (maximum tolerated dose) is the lethal dose
(milligram/kilogram) for 10% normal BDF1 male mice (18-22 g); animal
calculated from a plot of logdose vs. percent mortality.

B16 melanoma = assay: In vivo antitumor activity against B16 melanoma; design: species or system BDF1 mice
Description: AMD-OZL analogues 9a and 10a were about as active as AMD and 7-hydroxy-AMD. The potencies of these analogues are reduced in comparison to that of AMD; their optimal doses were higher than that of AMD.
^a 0.2 mL of 1:5 (weight/volume) brei of B16 melanoma implanted
ip on day 0 in groups of nine BDF1 mice. Drugs administered ip.
^b MST (range) median survival time in days (range of individual
^c % ILS (surv), percent increase in lifespan (survivors on day

P388 Leukemia = assay: Minimum effective dose and therapeutic index vs. P388 leukemia; assay type: in vivo; conditions: dose giving 45% increase in life span in P388 tumor bearing mice; ip days 1, 5 and 9
Description: as §2
^a Drugs administered ip once on days 1, 5 and 9 starting 1 day after
tumor implantation. Determinations were made from analysis of plotted
^b MED (minimum effective dose) is the dose (milligram/kilogram)
providing an increase in life span of 45% over control in P388 tumor

[5] = tested on: P388 lymphocytic leukemia; assay: In vivo antitumor activity against P388 leukemia; design: species or system BDF1 mice
Description: The analogues were tested for their antitumor activities in P388 lymphocytic leukemia in male BDF1 mice. The tumor was implanted intraperitoneally (ip) with 10^6 cells. The drugs were also administered ip once daily on days 1, 5 and 9, beginning 1 day after tumor transplantation. Analogues were tested over a range of doses, but only the optimal nontoxic doses are listed.
^a 10^6 P388 cells implanted ip on day 0 into groups of eight
BDF1 male mice. Drugs administered ip. MST (range), median survival
time in days (range of individual animal deaths); % ILS, percent increase
in life span, calculated 100(T/C - 1), where T and C are median survival
times of treated and control animals; surv, number of surviving mice/tota

P388 cells [6] = assay: Inhibition of DNA synthesis (methyl-[3H]thymidine incorporation) in P388 cells; assay type: cell-based, murine; conditions: 50% reduction in 1 hr of methyl-[3H]thymidine incorporation, read-out: IC50 DNA synth
Description: as §1
^c IC50 (DNA) = concentration of inhibitor in μM required to
cause 50% reduction (in 1 hr) in methyl[^3 H]thymidine incorporation
into acid precipitable material with use of P388 cells.

CCN(CC)C(=O)c1c2nc3c(C(=O)N(CC)CC)c(N)c(O)c(C)c3oc-2c(C)c(=O)c1N [4b, 2,8-Diamino-1,9-bis(diethylcarbamoyl)-7-hydroxy-4,6-dimethyl-3-H-phenoxazine-3-one]
NADPH oxid [1]: 8.9 ± 0.90 nmol min^-1 (mg of protein)^-1
percentage stimulation of NADPH oxidation over basal rate [1]: -2%
free-radical intermediate detected by EPR (liver microsomes): no free-radical intermediates were detectable
adrenochrome formation (rat hepatic microsomes): 2.13 ± 0.19 nmol min^-1 (mg of protein)^-1
percentage stimulation of adrenochrome formation over basal rate (rat hepatic microsomes): +1%

Cc1c2oc3c(C)c(O)cc(C(=O)N[C@@H]4C(=O)N[C@H](C(C)C)C(=O)N5CCC[C@H]5C(=O)N(C)CC(=O)N(C)[C@@H](C(C)C)C(=O)O[C@@H]4C)c3nc-2c(C(=O)N[C@@H]2C(=O)N[C@H](C(C)C)C(=O)N3CCC[C@H]3C(=O)N(C)CC(=O)N(C)[C@@H](C(C)C)C(=O)O[C@@H]2C)c(N)c1=O [2a, 7-hydroxyactinomycin D, reference compound]
IC50 (P388 cells [2]; 50% reduction in 1 hr of 2-[14C]uridine incorporation, read-out: IC50 RNA synth): 5.1 µM
IC50 DNA/IC50 RNA (P388 cells [2]; ratio): 1.00
NADPH oxid [1]: 29.9 ± 1.91 nmol min^-1 (mg of protein)^-1
percentage stimulation of NADPH oxidation over basal rate [1]: 228%
in vitro (CCRF-CEM) ID50 [3]: 1 µM
MTD (maximum tolerated dose) ([4]; lethal dose for 10% normal BDF1 male mice, 21 days (LD10), ip days 1, 5 and 9): 3.50 milligram/kilogram
MTD as fold of the MTD of AMD ([4]; tumor-free BDF1 male mice): about 14 fold
% ILS (B16 melanoma; at optimal dose): 52%
surv (survivors on day 65/total injected) (B16 melanoma; at optimal dose): 1/9
MST (range) (B16 melanoma; at optimal dose, control 29 (20-48)): 44 (39-53) days
optimal dose (B16 melanoma; ip, days 1, 5, 9): 1200 μg/kg per inj
adrenochrome formation (rat hepatic microsomes): 7.29 ± 0.79 nmol min^-1 (mg of protein)^-1
adrenochrome formation in presence of SOD (rat hepatic microsomes; SOD (superoxide dismutase) 5 μg/mL added): inhibited
percentage stimulation of adrenochrome formation over basal rate (rat hepatic microsomes): 245%
MED (minimum effective dose) (P388 Leukemia): 0.275 milligram/kilogram
surv (surviving mice/total mice at 60 days) ([5]; P388, at optimal dose): 0/8
% ILS ([5]; P388, at optimal dose, 100(T/C - 1)): 136%
MST (range) ([5]; P388, at optimal dose, control 11.0 (9-12)): 26.0 (19-39) days
optimal dose ([5]; P388, ip, days 1, 5 and 9, optimal nontoxic dose): 1200.0 μg/kg per inj
IC50 (P388 cells [6]): 5.1 µM

CCN(CC)C(=O)c1cc(=O)c(C)c2oc3c(C)c4oc(C)nc4c(C(=O)N(CC)CC)c3nc1-2 [9b]
NADPH oxid [1]: 8.9 ± 0.90 nmol min^-1 (mg of protein)^-1
percentage stimulation of NADPH oxidation over basal rate [1]: -2%
adrenochrome formation (rat hepatic microsomes): 2.13 ± 0.19 nmol min^-1 (mg of protein)^-1
percentage stimulation of adrenochrome formation over basal rate (rat hepatic microsomes): +1%

CCN(CC)C(=O)c1c2nc3c(C(=O)N(CC)CC)cc(O)c(C)c3oc-2c(C)c(=O)c1N [2b]
NADPH oxid [1]: 8.9 ± 0.90 nmol min^-1 (mg of protein)^-1
percentage stimulation of NADPH oxidation over basal rate [1]: -2%
adrenochrome formation (rat hepatic microsomes): 2.13 ± 0.19 nmol min^-1 (mg of protein)^-1
percentage stimulation of adrenochrome formation over basal rate (rat hepatic microsomes): +1%
